According to publication PMC3551756, “HIV-1 Fusion Is Blocked through Binding of GB Virus C E2D Peptides to the HIV-1 gp41 Disulfide Loop” (PLoS ONE, 2013):

Key:
gp41MN = experiment: Competitive ELISA, E2 peptides versus gp41 mAbs on immobilized gp41MN; type: binding, HIV-1; conditions: increasing peptide, three independent experiments each in duplicate; for inhibition of F240 binding to gp41: mAb F240 (disulfide loop); for inhibition of F240 binding to gp41 / inhibition of T32 binding to gp41: immobilized gp41MN; for inhibition of T32 binding to gp41: mAb T32 (disulfide loop); for inhibition of gp41 binding of 246-D, D50, 5F3, 2F5, 4E10 and Chessie 8: mAbs other than F240 and T32, immobilized gp41MN
Description: Flat-bottom, 96-well Microtest ELISA plates (Sarstedt, Germany) were coated overnight at 4°C with recombinant HIV-1 gp120 (0.5 µg/ml), gp41 (0.22 µg/ml) proteins, or with streptavidin (4 µg/ml) in coating buffer (0.1 M NaHCO3, 0.1 M Na2CO3, pH 9.87). Nonspecific binding was blocked (blocking buffer: 1% BSA, 0.1% Tween-20 in phosphate buffer, pH 7.2) for 1 h at room temperature, followed by washing steps (wash buffer: 0.1% Tween in phosphate buffer, pH 7.2). Streptavidin-coated plates were then incubated with gp41 disulfide loop peptides (Loop36ox or Loop36s; 2.5 µM). All plates were then incubated with recombinant E2_340-Fc or Fc protein in serial dilutions in sample buffer (phosphate buffer, pH 7.2) for 3 hr at room temperature. To perform the competitive ELISAs, the recombinant E2_340-Fc protein was adjusted at 5 µg/ml and the monoclonal gp41 antibodies (246-D, F240, T32, D50, 2F5, 4E10, Chessie 8 [all: NIH AIDS Research and Reference Reagent Program], and 5F3 [Polymun, Austria]) at […]. After washing procedure, the plates were incubated for 1 h with polyclonal rabbit anti-human IgG peroxidase antibody (Dako, Germany) 1∶6000 in sample buffer and washed. Plates were developed with TMB peroxidase substrate solution (KPL, USA), or with OPD/H2O2 solution in the dark. Absorbances (ODs) were read at 450 or 492 nm, respectively, using a multi-channel photometer (ELISA-Reader AxSYM, Abbott Laboratory, USA).
(A) Illustration of gp41 variants (strains IIIB, MN) and peptides (N36, C34) used in ELISA as well as the binding epitopes of different monoclonal gp41 antibodies. Gp41 consists of the N-terminal fusion peptide (FP), the N- and C-heptad repeats (NHR, CHR) that are connected by the disulfide loop region (C-C loop), the membrane proximal external region (MPER), the α-helical transmembrane-spanning domain (TM), and the cytoplasmic tail (CP). […] Each sample was tested in triplicate. […] (C) Competitive binding of E2 peptides and different gp41 targeting mAbs to immobilized recombinant gp41MN. Simultaneously to mAb incubation E2 peptides were added with increasing amounts. […] The graphs show average values of three independent experiments each performed in duplicate.
Finally, we performed a direct binding assay with biotin-tagged 36mer gp41 disulfide loop peptides (residues from 588 to 623 according to HIV gp160HxB2) and GBV-C E2_340-Fc. We immobilized via streptavidin an oxidized (closed loop) or a linear variant of the disulfide loop, in which the cysteine residues were replaced with serine (Table S1) onto plates and the binding of graded concentrations of GBV-C E2_340-Fc was monitored with HRP-anti-human antibodies.

[1] = test system: HIV-1 NL4-3 / TZM-bl cells; experiment: HIV-1 virion-based (BlaM-Vpr) virus-cell fusion assay; conditions: standard (pre-CD4 binding) and TAS (post-CD4 binding, 23°C 1 h then 37°C 2 hr); E2 peptides 20 µM, AMD-3100 10 µM, 2F5 0.5 µg/ml, b12 and B4 0.3 µg/ml; five independent experiments each in triplicate
Description: HIV-1 virions containing the BlaM-Vpr chimera were produced as previously described [33]. Briefly, 293T cells were co-transfected with pNL4-3 proviral DNA, pCMV-BlaM-Vpr, and pAdVAntage vectors. After 2 days of cultivation, the virus-containing supernatant was centrifuged for 10 min at 300×g to remove cellular debris. The HIV-1 virion-containing supernatant was overlaid onto a 20% sucrose cushion and ultracentrifuged at 35000×g at 4°C for 90 min. The resulting pellet was resuspended in medium and aliquots were frozen at −80°C until usage.
The virion-based fusion assay was performed essentially as described elsewhere [41]. Briefly, 5×10^4 TZM-bl cells were infected with sucrose-purified HIV-1 NL4-3 virions containing BlaM-Vpr (5 ng p24-Gag per approach). Under temperature-arrested state (TAS) conditions, binding of the HI virions to target cells was allowed at low temperature via spinning inoculation, for which virions were added to cells and centrifuged at 2095×g, 4°C for 30 min. […] BlaM activity was quantified using a fluorescence plate reader. The extent of virus-cell fusion was determined from the ratio of blue (460 nm) and green (510 nm) emission upon exciting the cells at 405 nm.
To find out whether early or late steps of HIV-1 entry are affected by the E2 peptides, the E2 peptide activity was determined before and after gp120/CD4 engagement using the Vpr-β-lactamase (Vpr-BlaM) enzyme-based virus-cell fusion assay under standard (pre-CD4 binding) and temperature-arrested state (TAS; post-CD4 binding) conditions, respectively.
The HIV-inhibitory activity of known HIV-1 entry inhibitors or respective E2 peptides was determined using a virus-cell fusion assay under standard (respective inhibitors were added simultaneously to HIV NL4-3BlaM-Vpr inoculum: pre-CD4 binding) or under TAS (temperature-arrested state) conditions (respective inhibitors were added at low temperature of 23°C for 1 h after spin-inoculation [4°C] and removal of unbound HIV-1 particles: post-CD4 binding). […] Percentages were calculated in relation to mock-treated cells. […]

CD4 = CD4 surface expression, flow cytometry; type: cell-based, human; conditions: PBMC and TZM-bl cells; E2 peptides 25 µM, PMA 40 ng/ml; 6 hr; FACS; RTCN vs mock; average of two independent experiments each in triplicate
Description: (§1) PHA/IL-2-stimulated PBMC or TZM-bl cells were incubated with E2 peptides (25 µM), phorbol 12-myristate 13-acetate (PMA; 40 ng/ml), SDF-1α (1 µg/ml) or RANTES (50 nM) for 6 hr. CD4, CXCR4 and CCR5 surface expression was analyzed by using standard FACS staining protocols. Cells were washed with PBS and incubated for 30 min at 4°C with PE-labeled antibodies (CD4 clone SK3, CXCR4 clone 12G5, and CCR5 clone 2D7, BD Biosciences, Germany). Subsequently, washed cells were resuspended in PBS and analyzed with a FACSCalibur™ flow cytometer (BD Biosciences, Germany).
(§2) The non-HIV-1-inhibitory peptide P28 derived from the C-terminal part of E2 (residue 271 to 290), served as a negative control.
(§3) CD4, CXCR4 and CCR5 expression on PBMC (A) and TZM-bl cells (B) after preincubation with E2 peptides were determined by flow cytometry analysis. […] Percentages illustrate the ratio-to-cell-negative (RTCN) values that were calculated from the percentage of positive cells and the fluorescence intensity of peptide-incubated cells compared to mock-incubated cells. Columns show average values ±SD of two independent experiments each performed in triplicate. *: p<0.05; **: p<0.01 (mock- vs. inhibitor-incubated cells).

CXCR4 = CXCR4 surface expression, flow cytometry; type: cell-based, human; conditions: PBMC and TZM-bl cells; E2 peptides 25 µM, SDF-1α 1 µg/ml; 6 hr; FACS; RTCN vs mock; average of two independent experiments each in triplicate
Description: as §1, §2, §3

| Compound | inhibition of F240 binding to gp41 (gp41MN) | inhibition of T32 binding to gp41 (gp41MN) | inhibition of gp41 binding of 246-D, D50, 5F3, 2F5, 4E10 and Chessie 8 (gp41MN) | inhibition of virus-cell fusion, standard versus TAS conditions [1] | CD4 surface presentation (CD4) | CXCR4 surface presentation (CXCR4) |
| --- | --- | --- | --- | --- | --- | --- |
| CC(=O)N[C@@H](CC(C)C)C(=O)N[C@@H](CS)C(=O)N[C@@H](CC(=O)O)C(=O)N[C@@H](CS)C(=O)N1CCC[C@H]1C(=O)N[C@@H](CC(N)=O)C(=O)NCC(=O)N1CCC[C@H]1C(=O)N[C@@H](Cc1c[nH]c2ccccc12)C(=O)N[C@H](C(=O)N[C@@H](Cc1c[nH]c2ccccc12)C(=O)N[C@H](C(=O)N1CCC[C@H]1C(=O)N[C@@H](C)C(=O)N[C@@H](Cc1ccccc1)C(=O)N[C@@H](CS)C(=O)N[C@@H](CCC(N)=O)C(=O)N[C@@H](C)C(=O)N[C@H](C(=O)NCC(=O)O)C(C)C)C(C)C)C(C)C [P6-2] | inhibited in a dose-dependent manner | inhibited in a dose-dependent manner | Of the eight antibodies, only the gp41 interaction of F240 and T32 was inhibited | full activity under both conditions | no relevant effect on HIV-1 receptor presentation | no relevant effect on HIV-1 receptor presentation |
| Ac-WDRGNVTLLCDCPNGPWVWV [P4-7, 20 mer peptide presenting amino acids 37 to 56 of the GBV-C E2 protein] | inhibited in a dose-dependent manner | inhibited in a dose-dependent manner | Of the eight antibodies, only the gp41 interaction of F240 and T32 was inhibited | full activity under both conditions | no relevant effect on HIV-1 receptor presentation | no relevant effect on HIV-1 receptor presentation |
